Assay results published in patent US20080108642A1 (Tsinghua University, priority 2006, published 2008).
Entries after “also recorded” stand apart in the source; their conditions may differ. Where a name gives a salt, the structure may show the parent alone.

Assays:
[1] = LC-DAD-MS analysis of ingredients in rat plasma after oral administration of QLY decoction; details: 20 minutes after oral administration of QLY decoction
Source text: Liquid chromatography simultaneously coupled with a diode array detector and a mass spectrometry detector (LC-DAD-MS) was used to analyze the pharmaceutical ingredients in rat plasma at different time points after oral administration of QLY decoction in order to determine the ingredients in QLY that could be absorbed into the body through metabolism. In this experiment, performed were comparison analyses of chromatogram and mass spectrum of QLY decoction and those of decoction of each of the constituent herbs of QLY, comparison analyses of chromatogram and mass spectrum of QLY decoction and those of QLY decoction plus blank plasma, comparison analyses of chromatogram and mass spectrum of blank plasma and those of post-administration plasma (blood sample taken at 20 min, 1 h, and 2 h respectively after oral administration of QLY decoction).

[2] = tested on: Human Umbilical Vein Endothelial Cells (HUVEC); experiment: Suppression of endothelial cell proliferation, separate and combined use (equivalent curve / response surface method); type: cell-based; details: separate use
Source text: Human Umbilical Vein Endothelial Cells (HUVEC) were employed in the experiment and the suppression rate on endothelial cell proliferation were monitored. Classical methods including equivalent curve method and the response surface method were used and the amount-effect curves were plotted.

SMILES	detected in plasma of rats after oral administration of QLY [1]	effect on suppressing proliferation of endothelial cells (anti-angiogenesis activity) [2]	effect on suppressing proliferation of endothelial cells (anti-angiogenesis activity) ([2]; hydrochloride)
O=C1CCCC2C3CCCN4CCCC(CN12)C34 (stereo not drawn) [matrine, Matrine]	detected	relatively strong; also recorded: remarkable effect	
COC1=C[C@@H]2[C@@H]3Cc4ccc(OC)c(O)c4[C@]2(CCN3C)CC1=O [sinomenine hydrochloride]			relatively strong; also recorded: remarkable effect
COC1=CC2C3Cc4ccc(OC)c(O)c4[C@]2(CCN3C)CC1=O (stereo partly drawn) [sinomenine, Sinomenine]	detected		
CN1C[C@@H]2C[C@H](C1)c1cccc(=O)n1C2 [N-methylcytisine]	small amounts		
O=C1C=CC[C@@H]2[C@H]3CCCN4CCC[C@@H](CN12)[C@@H]34 [sophocarpine]	small amounts		
